Laboratory results published in PMC5571211 (Scientific Reports, 2017).

Legend:
sEH in HepG2 cells = target: T1, sEH in HepG2 cells (Homo sapiens, UniProt P34913); assay: 14,15-DiHETrE formation in HepG2 cells (cell-based sEH assay); details: HepG2 cells; AUDA 5 µM, MK886 0.3 µM, SC57461A 0.3 µM
T1 construct: sEH is constitutively expressed in the human liver cancer cell line HepG2; endogenous in cells; host or cells: HepG2
T1 sequence (P34913 1-555): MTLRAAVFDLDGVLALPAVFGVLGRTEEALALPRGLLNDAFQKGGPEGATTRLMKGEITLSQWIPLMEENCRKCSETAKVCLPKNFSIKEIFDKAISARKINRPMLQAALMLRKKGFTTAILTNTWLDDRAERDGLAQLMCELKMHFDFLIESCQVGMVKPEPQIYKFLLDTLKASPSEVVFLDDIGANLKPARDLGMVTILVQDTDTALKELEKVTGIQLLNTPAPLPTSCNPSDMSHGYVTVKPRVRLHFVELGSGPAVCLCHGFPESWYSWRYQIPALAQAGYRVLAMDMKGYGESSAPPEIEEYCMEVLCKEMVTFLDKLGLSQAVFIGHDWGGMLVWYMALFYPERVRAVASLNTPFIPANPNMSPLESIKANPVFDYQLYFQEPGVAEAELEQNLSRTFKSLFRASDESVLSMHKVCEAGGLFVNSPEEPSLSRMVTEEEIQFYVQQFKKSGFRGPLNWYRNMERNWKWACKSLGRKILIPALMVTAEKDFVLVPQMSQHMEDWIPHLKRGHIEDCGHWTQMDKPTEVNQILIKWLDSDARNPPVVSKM
Protocol: To assay the activity of sEH in a cell-based model, HepG2 cells were harvested by trypsinization, pelleted (1,200 rpm, 5 min, 4 °C) and resuspended in PGC buffer to a final concentration of 1.5 × 10^6 cells/mL. […] Briefly, samples were acidified with four volumes of MilliQ water pH 3.5 containing PBS-HCl and subjected to Waters Sep-Pak® Vac 6cc columns (Waters, Milford, MA, USA), washed once with MilliQ and hexane, and eluted with methylformiate. The nitrogen-dried samples were dissolved in 50% methanol, and 14,15-DiHETrE formation was measured by UPLC-MS/MS using an Acquity™ UPLC system (Waters, Milford, MA, USA) and a QTRAP 5500 Mass Spectrometer (ABSciex, Darmstadt, Germany) equipped with a Turbo V™ Source and electrospray ionization (ESI). […] Ion spray voltage was set to 4000 V, the heater temperature to 500 °C, the declustering potential to 50–80 eV, the entrance potential to 10 eV, the collision cell exit potential to 10–13 eV, collision energies of 10 eV, the spray gas pressure to 40 psi, medium collision gas and the curtain gas pressure to 35 psi.

LTC4S [1] = target: T2, LTC4S (Homo sapiens, UniProt Q16873); details: cited from earlier work
T2 construct: expressed in transfected cells; host or cells: HEK293 stably expressing LTC4S (geneticin selection), microsomal fraction
T2 sequence (Q16873 1-150): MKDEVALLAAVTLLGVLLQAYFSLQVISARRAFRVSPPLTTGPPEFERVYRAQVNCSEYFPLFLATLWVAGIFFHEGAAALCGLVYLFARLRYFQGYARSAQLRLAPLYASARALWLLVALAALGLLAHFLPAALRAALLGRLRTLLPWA

monocytes = assay: Acute cytotoxicity, MTT assay in monocytes; type: cell-based, human; details: 24 or 48 hrs; diflapolin 10 µM, staurosporine 3 µM
Protocol: Acute cytotoxicity of the compounds was determined using freshly isolated monocytes. Cells (0.2 × 10^6) per sample were seeded in 100 µL buffer on 96-well plates and treated with the test compounds and appropriate controls for 24 or 48 hrs (37 °C, 5% CO2). After addition of MTT (5 mg/mL) for 2 h (37 °C, 5% CO2), cells were lysed by SDS treatment (10%, pH 4.5) for 16–20 hrs and formazan formation was determined by measurement of absorbance at 570 nm.

[2] = test system: HEK293 cells expressing 5-LOX and FLAP; assay: 5-LOX product formation in HEK293 cells expressing 5-LOX and FLAP; type: cell-based; details: HEK293 expressing 5-LOX and FLAP, A23187 plus 3 µM AA
Protocol: HEK293 cells were cultured in monolayers (37 °C, 5% CO2) in DMEM containing FCS (10%), penicillin (100 U/mL) and streptomycin (100 µg/mL). HEK293 cell lines stably expressing 5-LOX with or without FLAP were selected using geneticin (400 µg/mL) with or without hygromycin (200 µg/mL), respectively, as previously described. Transfection of HEK293 was performed using pcDNA3.1 plasmids and lipofectamine according to the manufacturer’s instructions (Invitrogen, Darmstadt, Germany).
For analysis of 5-LOX product formation in HEK293 cells stably expressing 5-LOX with or without FLAP, cells were harvested by trypsinization, pelleted (1,200 rpm, 5 min, 4 °C) and resuspended in PGC buffer to a final concentration of 1 × 10^6 cells/mL. Aliquots were pre-incubated with test compounds or 0.1% DMSO for 15 min, respectively, and stimulated with 2.5 µM A23187 and 3 µM AA.

LTC4S [3] = target: T2, LTC4S; assay: LTC4S activity in microsomes of LTC4S-expressing HEK293 cells; type: biochemical; details: cell-free, up to 10 µM
Protocol: LTC4S activity was assayed by using microsomes of HEK293 cells stably expressing LTC4S, as previously published. In brief, HEK293 expressing LTC4S were cultivated as described above and selected using geneticin (400 µg/mL). Isolation of microsomes was performed as described for mPGES-1 above and microsomes were diluted in potassium phosphate buffer (0.1 M, pH 7.4) with glutathione (5 mM) to a final concentration of 2.5 µg protein per mL. […] To determine enzyme activity, acidified PBS and d5-LTC4-methyl ester (5 ng) as internal standard were added prior solid phase extraction and LTC4-methyl ester formation was analyzed by UPLC-MS/MS as described.

[4] = test system: AA release (cPLA2) in neutrophils; assay: [3H]-labeled arachidonic acid release in neutrophils; type: cell-based, human; details: [3H]AA-pre-labelled neutrophils; diflapolin 1 µM, RSC-3388 10 µM
Protocol: Freshly isolated human neutrophils were resuspended in RPMI 1640 medium to a final cell density of 10^7 cells/mL and incubated with 0.5 µCi/mL of [^3H]-labeled arachidonic acid ([^3H]-AA), corresponding to a concentration of 5 nM of the fatty acid, for 2 hrs (37 °C, 5% CO2). Cells were washed twice to remove unincorporated [^3H]-AA and resuspended in PBS containing glucose (0.1%), fatty acid-free BSA (2 mg/mL) and CaCl2 (1 mM). […] The reaction was stopped on ice and cells were centrifuged at 1,200 rpm (10 min, 4 °C). The collected supernatants were combined with 2 mL of liquid scintillation counting solution (Rotiszint eco plus, Carl Roth, Karlsruhe, Germany) and assayed for radioactivity by scintillation counting (Micro Beta Trilux, Perkin Elmer, Waltham, MA).

| Compound | effect on sEH in the cell-based sEH assay (sEH in HepG2 cells) | inhibition of MAPEG family member LTC4S (LTC4S [1]) | viability of monocytes, MTT assay (monocytes) | inhibition of 5-LOX product formation [2] | inhibition of LTC4S activity (LTC4S [3]) | release of AA upon A23187-stimulation [4] |
| --- | --- | --- | --- | --- | --- | --- |
| CC(C)c1ccc2c(c1)c(SC(C)(C)C)c(CC(C)(C)C(=O)O)n2Cc1ccc(Cl)cc1 [MK886, 3-[1-(4-chlorobenzyl)-3-t-butyl-thio-5-isopropylindol-2-yl]-2,2 - dimethylpropanoic acid] | no impact | inhibit |  |  |  |  |
| Cc1cc(OCc2nc3ccccc3s2)ccc1NC(=O)Nc1ccc(Cl)c(Cl)c1 [diflapolin, N-[4-(benzothiazol-2-ylmethoxy)-2-methylphenyl]-N′-(3,4-dichlorophenyl)urea] |  |  | did not affect the viability | strongly inhibited | failed to inhibit | did not inhibit |
